Patent publication US20240415914A1, “Water Dispersible Cannabinoid Compositions” (priority 2021, published 2024)
Where two headings read alike, the source gives them in different places.

Legend:
[1] = assay type: physicochemical; conditions: stored at room temperature (21-25° C.)
Experimental: At each time period, 0.05 g of powder was dissolved in 10 ml-15 of ethanol, diluted to fall within the analytical range, and injected into the LCMSMS for analysis.

[2] = Stability of cannabinoid and Vitamin E components of Beverage 2 (AB Red) stored at 8° C. and 21-25° C., LCMSMS over 570 days
Experimental: The LCMSMS was calibrated for 0-50 ng/ml cannabinoids with the same resin material used in the preparation of the concentrates. At each time period, 100 μml of beverage was diluted with 10 ml of methanol and injected into the LCMSMS for analysis.

Q: What does the source list for `CCCCCc1cc(O)c(C/C=C(\C)CCC=C(C)C)c(O)c1` [CBG, cannabigerol]?
A: Stability in Powder Concentrate (content by LCMSMS) ([1]; day 0): 1.1 mg/g powder; Stability in Powder Concentrate (content by LCMSMS) ([1]; day 1): 1.07 mg/g powder; Stability in Powder Concentrate (content by LCMSMS) ([1]; day 2): 1.08 mg/g powder; Stability in Powder Concentrate (content by LCMSMS) ([1]; day 3): 1.09 mg/g powder; Stability in Powder Concentrate (content by LCMSMS) ([1]; day 5): 1.11 mg/g powder; Stability in Powder Concentrate (content by LCMSMS) ([1]; day 8): 1.07 mg/g powder; Stability in Powder Concentrate (content by LCMSMS) ([1]; day 9): 1.09 mg/g powder; Stability in Powder Concentrate (content by LCMSMS) ([1]; day 10): 1.08 mg/g powder; Stability in Powder Concentrate (content by LCMSMS) ([1]; day 11): 1.14 mg/g powder; Stability in Powder Concentrate (content by LCMSMS) ([1]; day 12): 1.10 mg/g powder; Stability in Powder Concentrate (content by LCMSMS) ([1]; day 15): 1.08 mg/g powder; Stability in Powder Concentrate (content by LCMSMS) ([1]; day 16): 1.06 mg/g powder; Stability in Powder Concentrate (content by LCMSMS) ([1]; day 17): 1.06 mg/g powder; Stability in Powder Concentrate (content by LCMSMS) ([1]; day 18): 1.13 mg/g powder; Stability in Powder Concentrate (content by LCMSMS) ([1]; day 19): 1.14 mg/g powder; Stability in Powder Concentrate (content by LCMSMS) ([1]; day 22): 1.12 mg/g powder; Stability in Powder Concentrate (content by LCMSMS) ([1]; day 23): 1.13 mg/g powder; Stability in Powder Concentrate (content by LCMSMS) ([1]; day 24): 1.09 mg/g powder; Stability in Powder Concentrate (content by LCMSMS) ([1]; day 25): 1.13 mg/g powder; Stability in Powder Concentrate (content by LCMSMS) ([1]; day 26): 1.14 mg/g powder; Stability in Powder Concentrate (content by LCMSMS) ([1]; day 29): 1.10 mg/g powder; Stability in Powder Concentrate (content by LCMSMS) ([1]; day 30): 1.07 mg/g powder; Stability in Powder Concentrate (content by LCMSMS) ([1]; day 60): 1.1 mg/g powder; Stability in Powder Concentrate (content by LCMSMS) ([1]; day 90): 1.13 mg/g powder; Stability in Powder Concentrate (content by LCMSMS) ([1]; day 120): 1.09 mg/g powder; Stability in Powder Concentrate (content by LCMSMS) ([1]; day 150): 1.11 mg/g powder; Stability in Powder Concentrate (content by LCMSMS) ([1]; day 180): 1.07 mg/g powder; Stability in Powder Concentrate (content by LCMSMS) ([1]; day 210): 1.06 mg/g powder; Stability in Powder Concentrate (content by LCMSMS) ([1]; day 240): 1.12 mg/g powder; Stability in Powder Concentrate (content by LCMSMS) ([1]; day 270): 1.15 mg/g powder; Stability in Powder Concentrate (content by LCMSMS) ([1]; day 300): 1.09 mg/g powder; Stability in Powder Concentrate (content by LCMSMS) ([1]; day 330): 1.10 mg/g powder; Stability in Powder Concentrate (content by LCMSMS) ([1]; day 360): 1.09 mg/g powder; Stability in Powder Concentrate (content by LCMSMS) ([1]; day 390): 1.14 mg/g powder; Stability in Powder Concentrate (content by LCMSMS) ([1]; day 420): 1.11 mg/g powder; Stability in Powder Concentrate (content by LCMSMS) ([1]; day 450): 1.06 mg/g powder; Stability in Powder Concentrate (content by LCMSMS) ([1]; day 480): 1.12 mg/g powder; Stability in Powder Concentrate (content by LCMSMS) ([1]; day 510): 1.07 mg/g powder; Stability in Powder Concentrate (content by LCMSMS) ([1]; day 540): 1.07 mg/g powder; Stability in Powder Concentrate (content by LCMSMS) ([1]; day 570): 1.06 mg/g powder; Stability of Cannabinoids in AB Red ([2]; 8° C., 0 days): 4.75 µg/mL; Stability of Cannabinoids in AB Red ([2]; 8° C., 1 days): 4.62 µg/mL; Stability of Cannabinoids in AB Red ([2]; 8° C., 2 days): 4.79 µg/mL; Stability of Cannabinoids in AB Red ([2]; 8° C., 3 days): 4.70 µg/mL; Stability of Cannabinoids in AB Red ([2]; 8° C., 5 days): 4.75 µg/mL; Stability of Cannabinoids in AB Red ([2]; 8° C., 8 days): 4.76 µg/mL; Stability of Cannabinoids in AB Red ([2]; 8° C., 9 days): 4.72 µg/mL; Stability of Cannabinoids in AB Red ([2]; 8° C., 10 days): 4.68 µg/mL; Stability of Cannabinoids in AB Red ([2]; 8° C., 11 days): 4.77 µg/mL; Stability of Cannabinoids in AB Red ([2]; 8° C., 12 days): 4.64 µg/mL; Stability of Cannabinoids in AB Red ([2]; 8° C., 15 days): 4.68 µg/mL; Stability of Cannabinoids in AB Red ([2]; 8° C., 16 days): 4.65 µg/mL; Stability of Cannabinoids in AB Red ([2]; 8° C., 17 days): 4.77 µg/mL; Stability of Cannabinoids in AB Red ([2]; 8° C., 18 days): 4.67 µg/mL; Stability of Cannabinoids in AB Red ([2]; 8° C., 19 days): 4.71 µg/mL; Stability of Cannabinoids in AB Red ([2]; 8° C., 22 days): 4.70 µg/mL; Stability of Cannabinoids in AB Red ([2]; 8° C., 23 days): 4.66 µg/mL; Stability of Cannabinoids in AB Red ([2]; 8° C., 24 days): 4.65 µg/mL; Stability of Cannabinoids in AB Red ([2]; 8° C., 25 days): 4.73 µg/mL; Stability of Cannabinoids in AB Red ([2]; 8° C., 26 days): 4.68 µg/mL; Stability of Cannabinoids in AB Red ([2]; 8° C., 29 days): 4.80 µg/mL; Stability of Cannabinoids in AB Red ([2]; 8° C., 30 days): 4.72 µg/mL; Stability of Cannabinoids in AB Red ([2]; 8° C., 60 days): 4.70 µg/mL; Stability of Cannabinoids in AB Red ([2]; 8° C., 90 days): 4.73 µg/mL; Stability of Cannabinoids in AB Red ([2]; 8° C., 120 days): 4.68 µg/mL; Stability of Cannabinoids in AB Red ([2]; 8° C., 150 days): 4.67 µg/mL; Stability of Cannabinoids in AB Red ([2]; 8° C., 180 days): 4.65 µg/mL; Stability of Cannabinoids in AB Red ([2]; 8° C., 210 days): 4.60 µg/mL; Stability of Cannabinoids in AB Red ([2]; 8° C., 240 days): 4.68 µg/mL; Stability of Cannabinoids in AB Red ([2]; 8° C., 270 days): 4.66 µg/mL; Stability of Cannabinoids in AB Red ([2]; 8° C., 300 days): 4.70 µg/mL; Stability of Cannabinoids in AB Red ([2]; 8° C., 330 days): 4.60 µg/mL; Stability of Cannabinoids in AB Red ([2]; 8° C., 390 days): 4.55 µg/mL; Stability of Cannabinoids in AB Red ([2]; 8° C., 420 days): 4.58 µg/mL; Stability of Cannabinoids in AB Red ([2]; 8° C., 450 days): 4.54 µg/mL; Stability of Cannabinoids in AB Red ([2]; 8° C., 480 days): 4.51 µg/mL; Stability of Cannabinoids in AB Red ([2]; 8° C., 510 days): 4.40 µg/mL; Stability of Cannabinoids in AB Red ([2]; 8° C., 540 days): 4.42 µg/mL; Stability of Cannabinoids in AB Red ([2]; 8° C., 570 days): 4.37 µg/mL; Stability of Cannabinoids in AB Red ([2]; 21-25° C., 0 days): 4.75 µg/mL; Stability of Cannabinoids in AB Red ([2]; 21-25° C., 1 days): 4.57 µg/mL; Stability of Cannabinoids in AB Red ([2]; 21-25° C., 2 days): 4.61 µg/mL; Stability of Cannabinoids in AB Red ([2]; 21-25° C., 3 days): 4.71 µg/mL; Stability of Cannabinoids in AB Red ([2]; 21-25° C., 5 days): 4.66 µg/mL; Stability of Cannabinoids in AB Red ([2]; 21-25° C., 8 days): 4.66 µg/mL; Stability of Cannabinoids in AB Red ([2]; 21-25° C., 9 days): 4.74 µg/mL; Stability of Cannabinoids in AB Red ([2]; 21-25° C., 10 days): 4.59 µg/mL; Stability of Cannabinoids in AB Red ([2]; 21-25° C., 11 days): 4.72 µg/mL; Stability of Cannabinoids in AB Red ([2]; 21-25° C., 12 days): 4.62 µg/mL; Stability of Cannabinoids in AB Red ([2]; 21-25° C., 15 days): 4.80 µg/mL; Stability of Cannabinoids in AB Red ([2]; 21-25° C., 16 days): 4.75 µg/mL; Stability of Cannabinoids in AB Red ([2]; 21-25° C., 17 days): 4.63 µg/mL; Stability of Cannabinoids in AB Red ([2]; 21-25° C., 18 days): 4.70 µg/mL; Stability of Cannabinoids in AB Red ([2]; 21-25° C., 19 days): 4.66 µg/mL; Stability of Cannabinoids in AB Red ([2]; 21-25° C., 22 days): 4.71 µg/mL; Stability of Cannabinoids in AB Red ([2]; 21-25° C., 23 days): 4.67 µg/mL; Stability of Cannabinoids in AB Red ([2]; 21-25° C., 24 days): 4.78 µg/mL; Stability of Cannabinoids in AB Red ([2]; 21-25° C., 25 days): 4.56 µg/mL; Stability of Cannabinoids in AB Red ([2]; 21-25° C., 26 days): 4.77 µg/mL; Stability of Cannabinoids in AB Red ([2]; 21-25° C., 29 days): 4.78 µg/mL; Stability of Cannabinoids in AB Red ([2]; 21-25° C., 30 days): 4.73 µg/mL; Stability of Cannabinoids in AB Red ([2]; 21-25° C., 60 days): 4.61 µg/mL; Stability of Cannabinoids in AB Red ([2]; 21-25° C., 90 days): 4.55 µg/mL; Stability of Cannabinoids in AB Red ([2]; 21-25° C., 120 days): 4.61 µg/mL; Stability of Cannabinoids in AB Red ([2]; 21-25° C., 150 days): 4.65 µg/mL; Stability of Cannabinoids in AB Red ([2]; 21-25° C., 180 days): 4.53 µg/mL; Stability of Cannabinoids in AB Red ([2]; 21-25° C., 210 days): 4.63 µg/mL; Stability of Cannabinoids in AB Red ([2]; 21-25° C., 240 days): 4.56 µg/mL; Stability of Cannabinoids in AB Red ([2]; 21-25° C., 270 days): 4.68 µg/mL; Stability of Cannabinoids in AB Red ([2]; 21-25° C., 300 days): 4.47 µg/mL; Stability of Cannabinoids in AB Red ([2]; 21-25° C., 330 days): 4.57 µg/mL; Stability of Cannabinoids in AB Red ([2]; 21-25° C., 390 days): 4.57 µg/mL; Stability of Cannabinoids in AB Red ([2]; 21-25° C., 420 days): 4.51 µg/mL; Stability of Cannabinoids in AB Red ([2]; 21-25° C., 450 days): 4.63 µg/mL; Stability of Cannabinoids in AB Red ([2]; 21-25° C., 480 days): 4.44 µg/mL; Stability of Cannabinoids in AB Red ([2]; 21-25° C., 510 days): 4.37 µg/mL; Stability of Cannabinoids in AB Red ([2]; 21-25° C., 540 days): 4.49 µg/mL; Stability of Cannabinoids in AB Red ([2]; 21-25° C., 570 days): 4.36 µg/mL
